Structures can show the parent of a compound that is named as a salt.

The source of these data is patent US9624214B2, “Amino-substituted imidazo[1,2-a]pyridinecarboxamides and their use” (BAYER PHARMA AKTIENGESELLSCHAFT, priority 2012, dated 2017).

The experiment concerns the target T1, recombinant guanylate cyclase reporter cell line (Rattus norvegicus, UniProt P19686+P20595).
T1 construct: expressed in transfected cells
T1 sequence (P20595 1-619): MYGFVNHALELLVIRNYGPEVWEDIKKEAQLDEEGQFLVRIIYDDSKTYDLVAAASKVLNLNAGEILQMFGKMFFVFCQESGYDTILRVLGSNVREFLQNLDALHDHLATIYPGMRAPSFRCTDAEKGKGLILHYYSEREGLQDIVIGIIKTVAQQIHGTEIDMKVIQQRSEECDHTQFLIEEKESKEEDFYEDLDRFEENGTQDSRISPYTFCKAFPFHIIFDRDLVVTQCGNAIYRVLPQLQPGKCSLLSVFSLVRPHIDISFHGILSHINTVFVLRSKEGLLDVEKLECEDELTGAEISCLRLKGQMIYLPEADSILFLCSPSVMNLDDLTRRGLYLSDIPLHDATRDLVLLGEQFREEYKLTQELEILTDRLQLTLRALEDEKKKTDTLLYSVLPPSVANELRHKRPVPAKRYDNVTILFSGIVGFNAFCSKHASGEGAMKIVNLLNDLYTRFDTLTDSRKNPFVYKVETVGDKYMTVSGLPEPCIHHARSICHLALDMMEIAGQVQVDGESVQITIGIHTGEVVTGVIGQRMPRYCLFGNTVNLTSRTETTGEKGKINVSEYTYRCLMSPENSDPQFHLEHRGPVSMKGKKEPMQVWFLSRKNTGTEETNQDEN
T1 sequence (P19686 1-690): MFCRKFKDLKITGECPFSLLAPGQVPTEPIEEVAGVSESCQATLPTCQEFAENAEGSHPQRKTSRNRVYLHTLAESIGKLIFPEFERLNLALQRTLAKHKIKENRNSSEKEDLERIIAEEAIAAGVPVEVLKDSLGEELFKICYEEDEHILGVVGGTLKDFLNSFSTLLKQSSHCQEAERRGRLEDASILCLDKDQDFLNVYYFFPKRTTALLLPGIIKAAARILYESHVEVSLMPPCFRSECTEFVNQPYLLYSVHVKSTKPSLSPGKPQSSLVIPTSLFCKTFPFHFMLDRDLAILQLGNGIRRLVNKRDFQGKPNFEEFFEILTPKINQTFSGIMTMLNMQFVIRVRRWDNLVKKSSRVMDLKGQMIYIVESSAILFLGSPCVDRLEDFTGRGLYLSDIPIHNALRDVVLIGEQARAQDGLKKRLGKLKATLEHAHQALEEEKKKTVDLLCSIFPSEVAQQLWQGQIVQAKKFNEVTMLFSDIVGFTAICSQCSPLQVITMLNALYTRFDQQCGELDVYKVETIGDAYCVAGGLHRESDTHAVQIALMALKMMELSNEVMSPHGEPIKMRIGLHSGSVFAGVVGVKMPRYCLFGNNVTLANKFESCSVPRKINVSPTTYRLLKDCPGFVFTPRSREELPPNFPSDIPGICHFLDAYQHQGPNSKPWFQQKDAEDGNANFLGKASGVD
The experiment in a line: B-2. Action on recombinant guanylate cyclase reporter cell line. The class given is cell-based. The note with it: MEC = minimal effective concentration; in some cases mean values from individual determinations. Summed up:
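Rat recombinant guanylate cyclase reporter cell line measures cellular activity. Value reported as MEC (minimal effective concentration), sometimes averaged over individual determinations.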
In the case of `Cc1cc(OCc2c(F)cccc2F)c2nc(C)c(C(=O)NC(C)C3CCN(C)CC3)n2c1` (racemic) [Example 77, rac-8-[(2,6-difluorobenzyl)oxy]-2,6-dimethyl-N-[1-(1-methylpiperidin-4-yl)ethyl]imidazo[1,2-a]-pyridine-3-carboxamide], the MEC was 1.00 µM.
The figure for `Cc1cc(OCc2c(F)cccc2F)c2nc(C)c(C(=O)NC(CN)c3ccc4ncccc4c3)n2c1` (racemic) [Example 395, rac-N-[2-amino-1-(quinolin-6-yl)ethyl]-8-[(2,6-difluorobenzyl)oxy]-2,6-dimethylimidazo[1,2-a]pyridine-3-carboxamide] is 1.00 µM.
Turning to `COCC(C)(N)CNC(=O)c1c(C)nc2c(OCc3c(F)cccc3F)cc(C)cn12` (single isomer, unassigned) [Example 199, ent-N-(2-Amino-3-methoxy-2-methylpropyl)-8-[(2,6-difluorobenzyl)oxy]-2,6-dimethylimidazo-[1,2-a]pyridine-3-carboxamide], the MEC was found to be 0.30 µM.
The figure for `Cc1cc(OCc2c(F)cccc2F)c2nc(C)c(C(=O)NCC3(N)COC3)n2c1` [Example 216, N-[(3-Aminooxetan-3-yl)methyl]-8-[(2,6-difluorobenzyl)oxy]-2,6-dimethylimidazo[1,2-a]pyridine-3-carboxamide] is 1.00 µM.
The same measure for `Cc1cc(OCc2c(F)cccc2F)c2nc(C)c(C(=O)NC3(C)CCC3(C)N)n2c1` (racemic) [Example 335, rac-N-[2-amino-1,2-dimethylcyclobutyl]-8-[(2,6-difluorobenzyl)oxy]-2,6-dimethylimidazo[1,2-a]pyridine-3-carboxamide]: 0.30 µM; for `COc1cccc(F)c1COc1cc(C)cn2c(C(=O)NCC(C)(C)N)c(C)nc12` [Example 352, N-(2-amino-2-methylpropyl)-8-[(2-fluoro-6-methoxybenzyl)oxy]-2,6-dimethylimidazo[1,2-a]pyridine-3-carboxamide]: 3.00 µM; for `CCC(C)(N)CNC(=O)c1c(C)nc2c(OCc3c(F)cccc3F)cc(C(F)F)cn12` (single isomer, unassigned; enantiomer a) [Example 288, ent-N-(2-amino-2-methylbutyl)-8-[(2,6-difluorobenzyl)oxy]-6-(difluoromethyl)-2-methylimidazo[1,2-a]pyridine-3-carboxamide (Enantiomer A)]: 0.3 µM.
Consider `Cc1nc2c(OCc3c(F)cccc3F)cc(Cl)cn2c1C(=O)NCC(C)(N)CC(C)C` (racemic) [Example 225, rac-N-(2-Amino-2,4-dimethylpentyl)-6-chloro-8-[(2,6-difluorobenzyl)oxy]-2-methylimidazo[1,2-a]pyridine-3-carboxamide], for which the MEC is 0.30 µM.
The figure for `Cc1nc2c(OCc3c(F)cccc3F)cccn2c1C(=O)NCC(C)CN` (single isomer, unassigned) [Example 95, ent-N-(3-Amino-2-methylpropyl)-8-[(2,6-difluorobenzyl)oxy]-2-methylimidazo[1,2-a]pyridine-3-carboxamide Dihydrochloride] is 1.00 µM.
Take `Cc1nc2c(OCc3c(F)cccc3F)cccn2c1C(=O)NCC(N)CC(F)(F)F` (single isomer, unassigned) [Example 126, ent-N-(2-Amino-4,4,4-trifluorobutyl)-8-[(2,6-difluorobenzyl)oxy]-2-methylimidazo[1,2-a]pyridine-3-carboxamide]: the MEC was 0.30 µM.
Turning to `COCC(C)(N)CNC(=O)c1c(C)nc2c(OCc3c(F)cccc3F)cccn12` (single isomer, unassigned) [Example 215, ent-N-(2-Amino-3-methoxy-2-methylpropyl)-8-[(2,6-difluorobenzyl)oxy]-2-methylimidazo[1,2-a]-pyridine-3-carboxamide], the MEC came to 1.00 µM.
The figure for `Cc1nc2c(OCc3c(F)cccc3F)cc(Cl)cn2c1C(=O)NCCN` [Example 36, N-(2-aminoethyl)-6-chloro-8-[(2,6-difluorobenzyl)oxy]-2-methylimidazo[1,2-a]-pyridine-3-carboxamide] is 1.00 µM; for `Cc1cc(OCc2c(F)cccc2F)c2nc(C)c(C(=O)NCC(C)(N)C3CC3)n2c1` (single isomer, unassigned; enantiomer a) [Example 260, ent-N-(2-Amino-2-cyclopropylpropyl)-8-[(2,6-difluorobenzyl)oxy]-2,6-dimethylimidazo[1,2-a]-pyridine-3-carboxamide (Enantiomer A)] it is 0.10 µM.
The figure for `Cc1cc(OCc2c(F)cccc2F)c2nc(C)c(C(=O)NC34CCC3CNC4)n2c1` (racemic) [Example 346, rac-N-(3-azabicyclo[3.2.0]hept-1-yl)-8-[(2,6-difluorobenzyl)oxy]-2,6-dimethylimidazo[1,2-a]pyridine-3-carboxamide] is 1.00 µM; for `CCCC[C@H](CN1CCOCC1)NC(=O)c1c(C)nc2c(OCc3c(F)cccc3F)cccn12` [Example 64, ent-8-[(2,6-Difluorobenzyl)oxy]-2-methyl-N-[(2R)-1-(morpholin-4-yl)hexan-2-yl]imidazo[1,2-a]-pyridine-3-carboxamide] it is 0.30 µM.
In the case of `Cc1nc2c(OCc3c(F)cccc3F)cccn2c1C(=O)NC(CN)COC(C)C` (single isomer, unassigned) [Example 93, ent-N-(1-Amino-3-isopropoxypropan-2-yl)-8-[(2,6-difluorobenzyl)oxy]-2-methylimidazo[1,2-a]-pyridine-3-carboxamide], the MEC came to 0.30 µM.
The figure for `Cc1cc(OCc2c(F)cccc2F)c2nc(C)c(C(=O)NCC(N)c3cccc(OCCO)c3)n2c1` (racemic) [Example 367, rac-N-{2-amino-2-[3-(2-hydroxyethoxy)phenyl]ethyl}-8-[(2,6-difluorobenzyl)oxy]-2,6-dimethylimidazo[1,2-a]pyridine-3-carboxamide] is 3.00 µM.
With `CCC(N)(CC)CNC(=O)c1c(C)nc2c(OCc3c(F)cccc3F)cccn12` [Example 253, N-(2-Amino-2-ethylbutyl)-8-[(2,6-difluorobenzyl)oxy]-2-methylimidazo[1,2-a]pyridine-3-carboxamide], the MEC was 0.10 µM.
Turning to `Cc1nc2c(OCc3c(F)cccc3F)cccn2c1C(=O)NCC(N)C(F)(F)F` (racemic) [Example 207, rac-N-(2-Amino-3,3,3-trifluoropropyl)-8-[(2,6-difluorobenzyl)oxy]-2-methylimidazo[1,2-a]-pyridine-3-carboxamide], the MEC amounted to 1.00 µM.
The same measure for `Cc1cc(OCc2c(F)cccc2F)c2nc(C)c(C(=O)NC(C)CN)n2c1` (stereo not drawn) [Example 48, ent-N-(1-Aminopropan-2-yl)-8-[(2,6-difluorobenzyl)oxy]-2,6-dimethylimidazo[1,2-a]pyridine-3-carboxamide]: 1.00 µM; for `CCCC(C)(N)CNC(=O)c1c(C)nc2c(OCc3c(F)cccc3F)cc(C(F)F)cn12` (single isomer, unassigned; enantiomer b) [Example 289, ent-N-(2-amino-2-methylpentyl)-8-[(2,6-difluorobenzyl)oxy]-6-(difluoromethyl)-2-methylimidazo[1,2-a]pyridine-3-carboxamide Formate (Enantiomer B)]: 0.3 µM.
